{
  "source": "patent US20180371158A1",
  "about": "“PEPTIDOMIMETIC POLYMERS AS CONTROLLED RELEASE MATRICES FOR SMALL MOLECULES, BIOLOGICALS, SYNTHETIC OR SEMI-SYNTHETIC MACROMOLECULES” (priority 2015, published 2018)",
  "test": "Release study of two dyes from electrospun fiber mat immersed in PBS at 37° C., UV absorbance",
  "assay_type": "physicochemical",
  "procedure": "6.36 mg rhodamine B was dissolved in 20 mL PBS. 200 μL solution of this solution was taken and 1.8 mL PBS was added to achieve a 10× dilution. The solution was serially diluted from 100× to 1000×, and the corresponding absorbance of each was measured. Rhodamine B concentration vs absorbance was plotted.\nThe above solution was diluted to 30, 40, 50, 60, 70, 80, 90, 100, 150, 200× concentrations. UV absorbance was measured for each solution.\nIn a 20 mL scintillation vial, 2 cm×2 cm fiber mat of the polyester was immersed in 20 ml PBS. The vial was stored in 37° C. incubator. 2 mL PBS was removed at each time point and replaced with 2 mL fresh PBS, and UV absorbance was measured. These measurements were performed in triplicates. Dye release was calculated according to the UV absorbance standard curve.",
  "data": [
    {"smiles": "CCN(CC)c1ccc2c(-c3ccccc3C(=O)O)c3ccc(=[N+](CC)CC)cc-3oc2c1.[Cl-]", "note": "[rhodamine B, Rhodamine B]", "values": [
      {"measurement": "cumulative release of dye from fiber mat", "setting": "after day 55, fiber mat of p(mPhe-Keto-BocGlu) mixed with rhodamine B and coumarin dye", "value": "17.0±3.2", "unit": "%"},
      {"measurement": "cumulative release of dye from fiber mat", "setting": "after day 90, fiber mat of p(mPhe-Keto-BocGlu) mixed with rhodamine B and coumarin dye", "value": "30.4±6.5", "unit": "%"},
      {"measurement": "cumulative release of dye from fiber mat", "setting": "days 0-7, fiber mat of p(mPhe-Keto-BocGlu) mixed with rhodamine B and coumarin dye", "value": "7.4±1.6", "unit": "%"}
    ]}
  ]
}
